A short description of the data set: Plasma half-life after oral administration in four dog breeds (Study 2). The settings on record: both sexes, 2 mg/kg. Type of data set: in vivo. The procedure: Four different sized-breeds from four different private breeders were tested (ten individuals were used from each breed): Anglo-French Hounds, Pointers, Cavalier King Charles Spaniels and Bernese Mountain Dogs. The bodyweights of the dogs ranged between [27.2, 37.4], [16.8, 22.3], [7, 9.8], [44.5, 62.5] kg; the ages were [0.6, 2.5], [1.9, 11.8], [1.7, 6.7], [1.4, 6.4] years for the Anglo-French Hounds, Pointers, Cavalier King Charles Spaniels and Bernese Mountain Dogs breeds, respectively. The sex ratios (male/female) were 5/5, 6/4, 4/6 and 4/6 for these same breeds. Prior to the experiment, all the animals underwent a clinical examination by a veterinarian, along with a complete biochemistry profile. No clinically important abnormality was noted during these examinations.
The half-life of elimination of cimicoxib was studied in four different sized breeds (40 dogs). Two mg/kg of cimicoxib was administered orally, in the form of 10 and 20 mg (hard gelatin capsules, Vetoquinol). For each dog, four blood samples (5 mL, heparinized tubes) were taken, at 6 h, 8 h, 10 h and 24 h after administration of cimicoxib, centrifuged (3000 G) and stored (- 20°C).
Plasma samples were analyzed by a High Performance Liquid Chromatography (HPLC) method using ultraviolet (UV) detection. Briefly, an internal standard (UR-8877) and cimicoxib (UR-8880) were extracted from plasma by a solid liquid (methanol) extraction process using HLB Oasis cartridges (Waters). The extraction yield was about 90%. The HPLC apparatus consists of a pump system equipped with an automatic injector and an UV detector (242 nm). […] The mobile phase was a mixture of 0.65 L of ultra-pure water and 0.35 L of acetonitrile which was delivered at a flow rate of 1 mL per min. Under these conditions, cimicoxib (UR-8880) and the internal standard (UR-8877) were eluted at retention times of 6 to 7 min and 10 to 11 min, respectively. The method was linear over the calibration range of 0.01 to 5 μg/mL using a linear model weighted by 1/X^2. Within-day and day-to-day coefficients of variation were less than 9% and the accuracy ranged from 94 to 103%, indicating an appropriate precision and accuracy for the analytical method. The lack of interference from endogenous compounds was verified on blank plasma from untreated dogs, establishing the specificity of the method. The validated limit of quantification was 0.01 μg/mL.
Half-life was estimated by log-linear regression (estimating the slope) using the non-compartmental approach implemented in Winnonlin.

We go through one molecule from PMC3892053, “Pharmacokinetic/pharmacodynamic modeling for the determination of a cimicoxib dosing regimen in the dog” (BMC Veterinary Research, 2013).

As a reminder, the half-life is how long it takes for the measured level to halve.

Structures are written as SMILES. Like-named read-outs stand apart in the source and are kept apart here.

As for `COc1ccc(-c2c(Cl)ncn2-c2ccc(S(N)(=O)=O)cc2)cc1F` [cimicoxib], the half-life (Anglo-French hound, po, oral 2 mg/kg, Anglo-French hounds (n = 10), read-out: plasma half-life, Maximum (converted)) is 4 h; the half-life (Anglo-French hound, po, oral 2 mg/kg, Anglo-French hounds (n = 10), read-out: plasma half-life, Mean (converted)) is 3.2 h; the half-life (Anglo-French hound, po, oral 2 mg/kg, Anglo-French hounds (n = 10), read-out: plasma half-life, Minimum (converted)) was 2 h; the half-life (Bernese mountain dog, po, oral 2 mg/kg, Bernese mountain dogs (n = 10), read-out: plasma half-life, Maximum (converted)) is 5.8 h; the half-life (Bernese mountain dog, po, oral 2 mg/kg, Bernese mountain dogs (n = 10), read-out: plasma half-life, Mean (converted)) is 4.4 h; the half-life (Bernese mountain dog, po, oral 2 mg/kg, Bernese mountain dogs (n = 10), read-out: plasma half-life, Minimum (converted)) was 3.2 h. In addition, the half-life (Cavalier King Charles spaniel, po, oral 2 mg/kg, Cavalier King Charles spaniels (n = 10), read-out: plasma half-life, Maximum (converted)) is 3.5 h; the half-life (Cavalier King Charles spaniel, po, oral 2 mg/kg, Cavalier King Charles spaniels (n = 10), read-out: plasma half-life, Mean (converted)) was 2.7 h; the half-life (Cavalier King Charles spaniel, po, oral 2 mg/kg, Cavalier King Charles spaniels (n = 10), read-out: plasma half-life, Minimum (converted)) is 1.9 h; the half-life (Pointer, po, oral 2 mg/kg, Pointers (n = 10), read-out: plasma half-life, Maximum (converted)) was 5.9 h; the half-life (Pointer, po, oral 2 mg/kg, Pointers (n = 10), read-out: plasma half-life, Mean (converted)) was 3.9 h; the half-life (Pointer, po, oral 2 mg/kg, Pointers (n = 10), read-out: plasma half-life, Minimum (converted)) was 2.5 h. Besides, the half-life (oral, the 40 dogs of four breeds, as summarised in Discussion, read-out: terminal half-life) was in the range of 2 to 4 h.
